Biological target: T1, bPARG (construct C, 75-kDa carboxyl-terminal region) expressed in E. coli (Bos taurus, UniProt O02776)
T1 construct: construct C contained only the 75-kDa carboxyl-terminal region of the PARG, which predicted a fusion protein of approximately 79 kDa; made in house; host or cells: E. coli (pTrcHis expression plasmid; supernatant of crude cell extract)
Test: PARG activity, thin layer chromatography assay measuring release of [32P]ADP-ribose from [32P]ADP-ribose polymers
Assay type: biochemical, bovine
Settings: 167 μm inhibitor; extract of E. coli strain containing construct C, 5 h after induction by IPTG (FIG. 6, bar 6 vs bar 5)
Procedure: For expression experiments, bacterial cultures were grown at 37° C. in 1% Bacto-tryptone, 0.5% yeast extract, and 0.5% NaCl to a density of approximately 0.6 A600/ml and were induced with 1 mM isopropyl-β-D-thiogalactoside (IPTG). Cells were-collected by centrifugation, and crude extracts were prepared by sonication (10 A600/ml) in 10 mM sodium phosphate buffer, pH 7.2, 150 mM NaCl, 0.5 mg/ml lysozyme, 0.1 mg/ml phenylmethylsulfonyl fluoride, 1 mM EDTA, 0.7 μg/ml pepstatin A, 0.5 μg/ml leupeptin, and 1 μg/ml aprotinin. Cell extracts were subjected to centrifugation, and the supernatant fraction was used for assay. PARG assay conditions were as described previously (52). Following incubations, portions of reaction mixture were analyzed by thin layer chromatography or subjected to anion exchange HPLC.
Using a thin layer chromatography assay that measures release of [^32P]ADP-ribose from [^32P]ADP-ribose polymers (53), PARG activity was detected in extracts from cells transformed by each of the constructs. […] Reaction mixtures contained approximately 15,000 cpm of [^32P]ADP-ribose polymers, and the cpm shown represent ADP-ribose released from the ADP-ribose polymers. […] No activity was detected in cells transformed with the empty vector, but activity was detectable without induction by IPTG, indicating a leaky lac promoter.

T1 sequence (O02776 322-977 limits assumed): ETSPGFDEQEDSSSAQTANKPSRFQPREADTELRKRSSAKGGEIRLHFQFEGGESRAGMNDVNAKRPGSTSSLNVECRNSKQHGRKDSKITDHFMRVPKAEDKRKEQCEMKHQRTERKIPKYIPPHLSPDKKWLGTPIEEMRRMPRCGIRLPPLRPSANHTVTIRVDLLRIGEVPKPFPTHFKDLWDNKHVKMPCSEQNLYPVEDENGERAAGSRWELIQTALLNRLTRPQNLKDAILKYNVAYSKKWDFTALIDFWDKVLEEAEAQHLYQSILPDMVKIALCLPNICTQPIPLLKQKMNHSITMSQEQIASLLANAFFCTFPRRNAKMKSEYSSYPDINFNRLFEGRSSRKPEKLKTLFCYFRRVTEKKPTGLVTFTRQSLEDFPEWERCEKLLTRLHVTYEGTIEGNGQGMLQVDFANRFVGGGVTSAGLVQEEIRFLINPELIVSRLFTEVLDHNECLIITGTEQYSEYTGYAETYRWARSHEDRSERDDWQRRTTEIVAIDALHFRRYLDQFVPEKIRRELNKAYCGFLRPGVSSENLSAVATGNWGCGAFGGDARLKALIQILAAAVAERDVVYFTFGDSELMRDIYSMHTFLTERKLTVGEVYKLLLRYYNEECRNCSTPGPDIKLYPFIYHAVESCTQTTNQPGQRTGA

Nc1ncnc2c1ncn2[C@@H]1O[C@H](COP(=O)(O)OP(=O)(O)OC[C@H]2NC[C@H](O)[C@@H]2O)[C@@H](O)[C@H]1O [ADP-hydroxymethylpyrrolidine diol]
enzymatic activity (ADP-ribose released from ADP-ribose polymers): strongly inhibited
